ChEMBL document CHEMBL1201862, “PubChem BioAssay data set” (2004)
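Following 48 hours of exposure in 96-well plates, responses at five concentrations were used to interpolate endpoints linearly. The concentration for 50% growth inhibition is given as GI50.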 The source made the active and inactive calls. No stated cut-off is given here; in the data, active = GI50 up to about 1.1 µM and inactive = higher.

Tests used:
Assay in all cases: growth of human tumour cells (NCI), 48 h
SNB-75 = tested on: SNB-75
SK-MEL-5 = tested on: SK-MEL-5
SK-MEL-28 = tested on: SK-MEL-28
ACHN = tested on: ACHN
SF-295 = tested on: SF-295
NCI-H460 = tested on: NCI-H460
HCT-15 = tested on: HCT-15
786-0 = tested on: 786-0
UO-31 = tested on: UO-31
OVCAR-4 = tested on: OVCAR-4
HOP-62 = tested on: HOP-62
HL-60 = tested on: HL-60
COLO 205 = tested on: COLO 205
NCI-H226 = tested on: NCI-H226
OVCAR-8 = tested on: OVCAR-8
SF-539 = tested on: SF-539
UACC-257 = tested on: UACC-257
HOP-92 = tested on: HOP-92
A498 = tested on: A498

For `CCCCc1ccc(-n2sc3ncccc3c2=O)cc1`, the GI50 (SNB-75) was 22.4 µM (inactive), the GI50 (SK-MEL-5) was 11.3 µM (inactive) and the GI50 (SK-MEL-28) was 13.9 µM (inactive). For the same molecule, the GI50 (ACHN) was 11.4 µM (inactive), the GI50 (SF-295) was 12.6 µM (inactive) and the GI50 (NCI-H460) was 5.26 µM (inactive). The GI50 (HCT-15) was 5.52 µM, the GI50 (786-0) was 9.42 µM (inactive) and the GI50 (UO-31) was 11.3 µM (inactive). The GI50 (OVCAR-4) was 13.6 µM (inactive), the GI50 (HOP-62) was 11 µM (inactive) and the GI50 (HL-60) was 0.908 µM (active). The GI50 (COLO 205) was 17.3 µM (inactive), the GI50 (NCI-H226) was 7.67 µM (inactive) and the GI50 (OVCAR-8) was 12.5 µM (inactive). For the same molecule, the GI50 (SF-539) was 21 µM (inactive) and the GI50 (UACC-257) was 16.3 µM (inactive).

`COc1c(C(=O)/C(=N/Nc2ccccc2)C(C)=O)c(O)c(OC)c2occc12` was tested, and the GI50 (SNB-75) was 19.8 µM (inactive), the GI50 (SK-MEL-5) was 13.7 µM (inactive) and the GI50 (SK-MEL-28) was > 100 µM (inactive). The GI50 (ACHN) was 50.4 µM (inactive), the GI50 (SF-295) was 48.9 µM (inactive) and the GI50 (NCI-H460) was 38.8 µM (inactive). For the same molecule, the GI50 (HCT-15) was 56.2 µM, the GI50 (786-0) was > 100 µM (inactive) and the GI50 (UO-31) was 17.2 µM (inactive). For the same molecule, the GI50 (OVCAR-4) was > 100 µM (inactive), the GI50 (HOP-62) was 97.5 µM (inactive) and the GI50 (HL-60) was 22.6 µM (inactive). The GI50 (COLO 205) was 32.2 µM (inactive), the GI50 (NCI-H226) was 52.1 µM (inactive) and the GI50 (OVCAR-8) was 62.2 µM (inactive). The GI50 (SF-539) was > 100 µM (inactive), the GI50 (UACC-257) was 34.9 µM (inactive) and the GI50 (HOP-92) was 9.38 µM (inactive).

`CC(C)(CO)CNc1nc(N)nc(Cl)c1N` was tested, and the GI50 (SNB-75) was > 100 µM (inactive), the GI50 (SK-MEL-5) was 95.1 µM (inactive) and the GI50 (SK-MEL-28) was > 100 µM (inactive). For the same molecule, the GI50 (ACHN) was > 100 µM (inactive), the GI50 (SF-295) was > 100 µM (inactive) and the GI50 (NCI-H460) was > 100 µM (inactive). The GI50 (HCT-15) was greater than 100 µM, the GI50 (786-0) was > 100 µM (inactive) and the GI50 (UO-31) was > 100 µM (inactive). For the same molecule, the GI50 (OVCAR-4) was > 100 µM (inactive), the GI50 (HOP-62) was > 100 µM (inactive) and the GI50 (COLO 205) was > 100 µM (inactive). The GI50 (NCI-H226) was 67.3 µM (inactive), the GI50 (OVCAR-8) was > 100 µM (inactive) and the GI50 (SF-539) was > 100 µM (inactive). The GI50 (UACC-257) was 42.9 µM (inactive) and the GI50 (HOP-92) was > 100 µM (inactive).

With `O=C(CNc1ccccc1[N+](=O)[O-])Nn1cnc2ccc(S(=O)(=O)Nc3ccccc3[N+](=O)[O-])cc2c1=O` the GI50 (SNB-75) was > 100 µM (inactive), the GI50 (SK-MEL-28) was > 100 µM (inactive) and the GI50 (ACHN) was > 100 µM (inactive). For the same molecule, the GI50 (SF-295) was > 100 µM (inactive), the GI50 (NCI-H460) was > 100 µM (inactive) and the GI50 (HCT-15) was greater than 100 µM. For the same molecule, the GI50 (786-0) was > 100 µM (inactive), the GI50 (UO-31) was 73.8 µM (inactive) and the GI50 (OVCAR-4) was > 100 µM (inactive). The GI50 (HOP-62) was > 100 µM (inactive), the GI50 (HL-60) was > 100 µM (inactive) and the GI50 (COLO 205) was > 100 µM (inactive). The GI50 (NCI-H226) was > 100 µM (inactive), the GI50 (OVCAR-8) was > 100 µM (inactive) and the GI50 (SF-539) was > 100 µM (inactive). The GI50 (UACC-257) was > 100 µM (inactive) and the GI50 (HOP-92) was > 100 µM (inactive).

For `NS(=O)(=O)c1nnc(NC(=O)c2cccc([N+](=O)[O-])c2)s1`, the GI50 (SK-MEL-5) was > 100 µM (inactive), the GI50 (SK-MEL-28) was > 100 µM (inactive) and the GI50 (ACHN) was > 100 µM (inactive). The GI50 (SF-295) was > 100 µM (inactive), the GI50 (NCI-H460) was > 100 µM (inactive) and the GI50 (HCT-15) was greater than 100 µM. For the same molecule, the GI50 (786-0) was > 100 µM (inactive), the GI50 (UO-31) was > 100 µM (inactive) and the GI50 (OVCAR-4) was > 100 µM (inactive). The GI50 (HOP-62) was > 100 µM (inactive), the GI50 (HL-60) was > 100 µM (inactive) and the GI50 (COLO 205) was > 100 µM (inactive). For the same molecule, the GI50 (NCI-H226) was > 100 µM (inactive), the GI50 (OVCAR-8) was > 100 µM (inactive) and the GI50 (SF-539) was > 100 µM (inactive). For the same molecule, the GI50 (UACC-257) was > 100 µM (inactive) and the GI50 (HOP-92) was 44.9 µM (inactive).

`CC(C)(CC#N)c1cc(CC(C)(C)c2cc(CC(C)(C)c3cc(C(C)(C)C4(C)OCCO4)no3)no2)no1` was tested, and the GI50 (SNB-75) was 14.7 µM (inactive), the GI50 (SK-MEL-5) was 75.7 µM (inactive) and the GI50 (SK-MEL-28) was > 100 µM (inactive). The GI50 (ACHN) was 35.5 µM (inactive), the GI50 (SF-295) was 31 µM (inactive) and the GI50 (A498) was 28.9 µM (inactive). The GI50 (HCT-15) was 94.2 µM, the GI50 (786-0) was 17 µM (inactive) and the GI50 (UO-31) was > 100 µM (inactive). For the same molecule, the GI50 (OVCAR-4) was 23.5 µM (inactive), the GI50 (HOP-62) was 27 µM (inactive) and the GI50 (COLO 205) was > 100 µM (inactive). For the same molecule, the GI50 (NCI-H226) was 36.4 µM (inactive), the GI50 (OVCAR-8) was 51.9 µM (inactive) and the GI50 (UACC-257) was 67.6 µM (inactive).

In the case of `CC(C)OCC(O)COc1cc(=O)oc2ccccc12` (configuration not stated), the GI50 (SK-MEL-5) is reported as > 100 µM (inactive), the GI50 (SK-MEL-28) is reported as > 100 µM (inactive) and the GI50 (ACHN) is reported as > 100 µM (inactive). The GI50 (SF-295) was > 100 µM (inactive), the GI50 (NCI-H460) was > 100 µM (inactive) and the GI50 (HCT-15) was greater than 100 µM. The GI50 (786-0) was > 100 µM (inactive), the GI50 (UO-31) was > 100 µM (inactive) and the GI50 (OVCAR-4) was > 100 µM (inactive). For the same molecule, the GI50 (HOP-62) was > 100 µM (inactive), the GI50 (HL-60) was > 100 µM (inactive) and the GI50 (COLO 205) was > 100 µM (inactive). The GI50 (OVCAR-8) was > 100 µM (inactive), the GI50 (UACC-257) was > 100 µM (inactive) and the GI50 (HOP-92) was > 100 µM (inactive).

For `NC(=O)NNc1nc(-c2ccccc2)cs1`, the GI50 (SNB-75) was > 100 µM (inactive), the GI50 (SK-MEL-5) was > 100 µM (inactive) and the GI50 (SK-MEL-28) was > 100 µM (inactive). For the same molecule, the GI50 (ACHN) was > 100 µM (inactive), the GI50 (SF-295) was > 100 µM (inactive) and the GI50 (A498) was > 100 µM (inactive). The GI50 (NCI-H460) was > 100 µM (inactive), the GI50 (HCT-15) was greater than 100 µM and the GI50 (786-0) was > 100 µM (inactive). The GI50 (UO-31) was > 100 µM (inactive), the GI50 (OVCAR-4) was > 100 µM (inactive) and the GI50 (HOP-62) was > 100 µM (inactive). The GI50 (COLO 205) was > 100 µM (inactive), the GI50 (NCI-H226) was > 100 µM (inactive) and the GI50 (OVCAR-8) was > 100 µM (inactive). For the same molecule, the GI50 (UACC-257) was > 100 µM (inactive).
